# Test results from article PMC11033320, “Activation of p53 signaling and regression of breast and prostate carcinoma cells by spirooxindole-benzimidazole small molecules” (Frontiers in Pharmacology, 2024).
# Legend:
# MALME-3M = experiment: NCI anticancer screening, Melanoma MALME-3M; type: cell-based; settings: Homo sapiens, read-out: % Growth Inhibition (GI %)
# Source text: (§1) The compound has been processed according to standard method NCI-60 Human Tumor Cell Lines Screen for organic compound at development therapeutic program (DTP). Requests for access to this national resource can be submitted online at: […]
# LOX IMVI = experiment: NCI anticancer screening, Melanoma LOX IMVI; type: cell-based; settings: Homo sapiens, read-out: % Growth Inhibition (GI %)
# Source text: as §1
# SN12C = experiment: NCI anticancer screening, Renal Cancer SN12C; type: cell-based; settings: Homo sapiens, read-out: % Growth Inhibition (GI %)
# Source text: as §1
# MDA-MB 231 cells = settings: for inhibition: 5 µM
# HCT-15 = experiment: NCI anticancer screening, Colon Cancer HCT-15; type: cell-based; settings: Homo sapiens; HCT-15, 10 μM; read-out: % Growth Inhibition (GI %)
# Source text: as §1
# MDA-MB-468 = experiment: NCI anticancer screening, Breast Cancer MDA-MB-468; type: cell-based; settings: Homo sapiens, read-out: % Growth Inhibition (GI %)
# Source text: as §1
# 786-0 = experiment: NCI anticancer screening, Renal Cancer 786-0; type: cell-based; settings: Homo sapiens; 786-0, 10 μM; read-out: % Growth Inhibition (GI %)
# Source text: as §1
# K-562 = experiment: NCI anticancer screening, Leukemia K-562; type: cell-based; settings: Homo sapiens, K562; K-562, 10 μM; read-out: % Growth Inhibition (GI %)
# Source text: as §1
# HOP-62 = experiment: NCI anticancer screening, Non-Small Cell Lung Cancer HOP-62; type: cell-based; settings: Homo sapiens; HOP-62, 10 μM; read-out: % Growth Inhibition (GI %)
# Source text: as §1
# M14 = experiment: NCI anticancer screening, Melanoma M14; type: cell-based; settings: Homo sapiens; M14, 10 μM; read-out: % Growth Inhibition (GI %)
# Source text: as §1
# SF-295 = experiment: NCI anticancer screening, CNS Cancer SF-295; type: cell-based; settings: Homo sapiens; SF-295, 10 μM; read-out: % Growth Inhibition (GI %)
# Source text: as §1
# HS 578T = experiment: NCI anticancer screening, Breast Cancer HS 578T; type: cell-based; settings: Homo sapiens, read-out: % Growth Inhibition (GI %)
# Source text: as §1
# NCI-H23 = experiment: NCI anticancer screening, Non-Small Cell Lung Cancer NCI-H23; type: cell-based; settings: Homo sapiens; NCI-H23, 10 μM; read-out: % Growth Inhibition (GI %)
# Source text: as §1
# HCT-116 = experiment: NCI anticancer screening, Colon Cancer HCT-116; type: cell-based; settings: Homo sapiens; HCT-116, 10 μM; read-out: % Growth Inhibition (GI %)
# Source text: as §1
# SF-268 = experiment: NCI anticancer screening, CNS Cancer SF-268; type: cell-based; settings: Homo sapiens; SF-268, 10 μM; read-out: % Growth Inhibition (GI %)
# Source text: as §1
# BT-549 = experiment: NCI anticancer screening, Breast Cancer BT-549; type: cell-based; settings: Homo sapiens; BT-549, 10 μM; read-out: % Growth Inhibition (GI %)
# Source text: as §1
# SK-MEL-5 = experiment: NCI anticancer screening, Melanoma SK-MEL-5; type: cell-based; settings: Homo sapiens; SK-MEL-5, 10 μM; read-out: % Growth Inhibition (GI %)
# Source text: as §1
# MDA-MB-435 = experiment: NCI anticancer screening, Melanoma MDA-MB-435; type: cell-based; settings: Homo sapiens; MDA-MB-435, 10 μM; read-out: % Growth Inhibition (GI %)
# Source text: as §1
# ACHN = experiment: NCI anticancer screening, Renal Cancer ACHN; type: cell-based; settings: Homo sapiens, read-out: % Growth Inhibition (GI %)
# Source text: as §1
# KM12 = experiment: NCI anticancer screening, Colon Cancer KM12; type: cell-based; settings: Homo sapiens; KM12, 10 μM; read-out: % Growth Inhibition (GI %)
# Source text: as §1
# A549/ATCC = experiment: NCI anticancer screening, Non-Small Cell Lung Cancer A549/ATCC; type: cell-based; settings: Homo sapiens, read-out: % Growth Inhibition (GI %)
# Source text: as §1
# HCC-2998 = experiment: NCI anticancer screening, Colon Cancer HCC-2998; type: cell-based; settings: Homo sapiens; HCC-2998, 10 μM; read-out: % Growth Inhibition (GI %)
# Source text: as §1
# SW-620 = experiment: NCI anticancer screening, Colon Cancer SW-620; type: cell-based; settings: Homo sapiens; SW-620, 10 μM; read-out: % Growth Inhibition (GI %)
# Source text: as §1
# SNB-75 = experiment: NCI anticancer screening, CNS Cancer SNB-75; type: cell-based; settings: Homo sapiens; SNB-75, 10 μM; read-out: % Growth Inhibition (GI %)
# Source text: as §1
# DU-145 = experiment: NCI anticancer screening, DU-145; type: cell-based; settings: Homo sapiens; DU-145, 10 μM; read-out: % Growth Inhibition (GI %)
# Source text: as §1
# NCI-H322M = experiment: NCI anticancer screening, Non-Small Cell Lung Cancer NCI-H322M; type: cell-based; settings: Homo sapiens, read-out: % Growth Inhibition (GI %)
# Source text: as §1
# IGROV1 = experiment: NCI anticancer screening, Ovarian Cancer IGROV1; type: cell-based; settings: Homo sapiens, IGROV-1; IGROV1, 10 μM; read-out: % Growth Inhibition (GI %)
# Source text: as §1
# HL-60(TB) = experiment: NCI anticancer screening, Leukemia HL-60(TB); type: cell-based; settings: Homo sapiens, read-out: % Growth Inhibition (GI %)
# Source text: as §1
# OVCAR-4 = experiment: NCI anticancer screening, Ovarian Cancer OVCAR-4; type: cell-based; settings: Homo sapiens; OVCAR-4, 10 μM; read-out: % Growth Inhibition (GI %)
# Source text: as §1
# SK-MEL-28 = experiment: NCI anticancer screening, Melanoma SK-MEL-28; type: cell-based; settings: Homo sapiens; SK-MEL-28, 10 μM; read-out: % Growth Inhibition (GI %)
# Source text: as §1
# OVCAR-8 = experiment: NCI anticancer screening, Ovarian Cancer OVCAR-8; type: cell-based; settings: Homo sapiens; OVCAR-8, 10 μM; read-out: % Growth Inhibition (GI %)
# Source text: as §1
# OVCAR-5 = experiment: NCI anticancer screening, Ovarian Cancer OVCAR-5; type: cell-based; settings: Homo sapiens; OVCAR-5, 10 μM; read-out: % Growth Inhibition (GI %)
# Source text: as §1
# NCI/ADR-RES = experiment: NCI anticancer screening, Ovarian Cancer NCI/ADR-RES; type: cell-based; settings: Homo sapiens, read-out: % Growth Inhibition (GI %)
# Source text: as §1
# CCRF-CEM = experiment: NCI anticancer screening, Leukemia CCRF-CEM; type: cell-based; settings: Homo sapiens, read-out: % Growth Inhibition (GI %)
# Source text: as §1
# RXF 393 = experiment: NCI anticancer screening, Renal Cancer RXF 393; type: cell-based; settings: Homo sapiens; RXF 393, 10 μM; read-out: % Growth Inhibition (GI %)
# Source text: as §1
# U251 = experiment: NCI anticancer screening, CNS Cancer U251; type: cell-based; settings: Homo sapiens, U-251; U251, 10 μM; read-out: % Growth Inhibition (GI %)
# Source text: as §1
# HT29 = experiment: NCI anticancer screening, Colon Cancer HT29; type: cell-based; settings: Homo sapiens, HT-29; HT29, 10 μM; read-out: % Growth Inhibition (GI %)
# Source text: as §1
# MCF7 = experiment: NCI anticancer screening, Breast Cancer MCF7; type: cell-based; settings: Homo sapiens; MCF7, 10 μM; read-out: % Growth Inhibition (GI %)
# Source text: as §1
Compound,inhibition at 10 µM (MALME-3M) [%],inhibition at 10 µM (LOX IMVI) [%],inhibition at 10 µM (SN12C) [%],IC50 (MDA-MB 231 cells) [µM],inhibition (MDA-MB 231 cells) [%],inhibition at 10 µM (HCT-15) [%],inhibition at 10 µM (MDA-MB-468) [%],inhibition at 10 µM (786-0) [%],inhibition at 10 µM (K-562) [%],inhibition at 10 µM (HOP-62) [%],inhibition at 10 µM (M14) [%],inhibition at 10 µM (SF-295) [%],inhibition at 10 µM (HS 578T) [%],inhibition at 10 µM (NCI-H23) [%],inhibition at 10 µM (HCT-116) [%],inhibition at 10 µM (SF-268) [%],inhibition at 10 µM (BT-549) [%],inhibition at 10 µM (SK-MEL-5) [%],inhibition at 10 µM (MDA-MB-435) [%],inhibition at 10 µM (ACHN) [%],other results
"O=C(c1nc2ccccc2[nH]1)[C@H]1[C@H](c2cccs2)C2CSCN2[C@]12C(=O)Nc1ccccc12 (stereo partly drawn) [Compound 6e, (3S,6′R)-6'-(1H-Benzo [d]imidazole-2-carbonyl)-7'-(thiophen-2-yl)-3′,6′,7′,7a′-tetrahydro-1′H-spiro [indoline-3.5′-pyrrolo [1,2-c]thiazol]-2-one]",101,97.5,97.5,5.61,58.2 ± 1.85,100,100,100,100,99.5,100,92.6,101,103,96.3,92.4,94.1,99,100,103,melting point: 240 to 242 °C; inhibition at 10 µM (KM12): 98.8%; inhibition at 10 µM (A549/ATCC): 87.1%; inhibition at 10 µM (HCC-2998): 108%; inhibition at 10 µM (SW-620): 96.7%; inhibition at 10 µM (SNB-75): 85.9%; inhibition at 10 µM (DU-145): 109%; inhibition at 10 µM (NCI-H322M): 97.7%; inhibition at 10 µM (IGROV1): 89.7%; inhibition at 10 µM (HL-60(TB)): 94.1%; inhibition at 10 µM (OVCAR-4): 93.9%; inhibition at 10 µM (SK-MEL-28): 105%; inhibition at 10 µM (OVCAR-8): 96.8%; inhibition at 10 µM (OVCAR-5): 96.2%; inhibition at 10 µM (NCI/ADR-RES): 102%; inhibition at 10 µM (CCRF-CEM): 104%; inhibition at 10 µM (RXF 393): 112%; inhibition at 10 µM (U251): 100%; inhibition at 10 µM (HT29): 101%; inhibition at 10 µM (MCF7): 94.5%
"O=C(c1nc2ccccc2[nH]1)[C@H]1[C@H](c2ccc(F)cc2)C2CSCN2[C@]12C(=O)Nc1ccccc12 (stereo partly drawn) [Compound 6f, (3S,6′R)-6'-(1H-Benzo [d]imidazole-2-carbonyl)-7'-(4-fluorophenyl)-3′,6′,7′,7a′-tetrahydro-1′H-spiro [indoline-3.5′-pyrrolo [1,2-c]thiazol]-2-one]",94.2,94.8,91.1,4.41 ± 0.448,44.9 ± 3.59,93.6,94.2,99,87.4,104,94.5,77.9,98,98,92.9,96.3,97.4,94.7,94.6,94.2,melting point: 233 to 235 °C; inhibition at 10 µM (KM12): 88.7%; inhibition at 10 µM (A549/ATCC): 78.6%; inhibition at 10 µM (HCC-2998): 97%; inhibition at 10 µM (SW-620): 91.1%; inhibition at 10 µM (SNB-75): 89.8%; inhibition at 10 µM (DU-145): 111%; inhibition at 10 µM (NCI-H322M): 90.4%; inhibition at 10 µM (IGROV1): 93.2%; inhibition at 10 µM (HL-60(TB)): 93.1%; inhibition at 10 µM (OVCAR-4): 83.2%; inhibition at 10 µM (SK-MEL-28): 102%; inhibition at 10 µM (OVCAR-8): 94.7%; inhibition at 10 µM (OVCAR-5): 100%; inhibition at 10 µM (NCI/ADR-RES): 99.4%; inhibition at 10 µM (CCRF-CEM): 98.2%; inhibition at 10 µM (RXF 393): 99.6%; inhibition at 10 µM (U251): 93.5%; inhibition at 10 µM (HT29): 85.7%; inhibition at 10 µM (MCF7): 87.4%
